Measured values as given in patent publication US12692235B2, “Fused ring compound and application thereof” (WUHAN LL SCIENCE AND TECHNOLOGY DEVELOPMENT CO., LTD., priority 2019, dated 2026).

Target: T1, hP2X4 (human purinergic P2X receptor subtype 4) (Homo sapiens, UniProt Q99571)
T1 sequence (Q99571 1-404 isoform Q99571-2): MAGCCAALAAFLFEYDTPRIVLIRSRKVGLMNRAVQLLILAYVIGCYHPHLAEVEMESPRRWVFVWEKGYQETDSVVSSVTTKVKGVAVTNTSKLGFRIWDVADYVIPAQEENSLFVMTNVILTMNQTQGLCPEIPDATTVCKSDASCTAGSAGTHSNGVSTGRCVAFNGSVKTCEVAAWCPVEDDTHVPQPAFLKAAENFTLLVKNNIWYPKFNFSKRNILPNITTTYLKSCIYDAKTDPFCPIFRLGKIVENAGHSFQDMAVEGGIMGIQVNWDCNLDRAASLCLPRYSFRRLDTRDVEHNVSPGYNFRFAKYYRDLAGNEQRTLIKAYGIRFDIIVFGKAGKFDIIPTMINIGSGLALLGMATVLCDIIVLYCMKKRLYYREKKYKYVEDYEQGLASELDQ
Conditions: P2X4 IC50 (nM), HEK293 cells stably expressing hP2X4; agonist BZ-ATP 2.5 μM; FLIPR calcium
Procedure: Cells at 400,000 cells/mL were seeded into a 384-well plate (10,000 cells/well) 18-24 h prior to the FLIPR experiment and then incubated overnight in a cell incubator. […] Each well was added with 20 μL of 0.5×Calcium 6 fluorescent dye (Molecular Devices, R8190) and then the cells were subjected to dye-loading incubation at 37° C. for 1.5 h. Each well was added with 10 μL of respective test compound (dissolved in DMSO at a concentration of 10 mM and serially diluted with buffer) or vehicle and the mixture was equilibrated for 30 min at room temperature.

| SMILES | IC50 |
| --- | --- |
| COc1nccc2c(S(N)(=O)=O)cc(NC(=O)Cc3cc(F)c(F)cc3Cl)cc12 [Compound 27, 2-(2-chloro-4,5-difluorophenyl)-N-(1-methoxy-5-sulfamoylisoquinolin-7-yl)acetamide] | < 10 nM |
| NS(=O)(=O)c1cc(NC(=O)Cc2ccccc2Cl)cc2cnc(-n3ccnc3)cc12 [Compound 22, N-(3-(1H-imidazol-1-yl)-5-sulfamoylisoquinolin-7-yl)-2-(2-chlorophenyl)acetamide] | 10 to 50 nM |
| NS(=O)(=O)c1cc(NC(=O)Cc2ccccc2Cl)cc2c(OC3CC3)nccc12 [Compound 10, 2-(2-chlorophenyl)-N-(1-cyclopropoxy-5-sulfamoylisoquinolin-7-yl)acetamide] | 10 to 50 nM |
| COc1ccc(F)cc1CC(=O)Nc1cc(S(N)(=O)=O)c2ccnc(OC)c2c1 [Compound 95, 2-(5-fluoro-2-methoxyphenyl)-N-(1-methoxy-5-sulfamoylisoquinolin-7-yl)acetamide] | 200 to 5000 nM |
| NS(=O)(=O)c1cc(NC(=O)Cc2ccccc2Cl)cc2cc(-n3ccnc3)ncc12 [Compound 50, N-(3-(1H-imidazol-1-yl)-8-sulfamoylisoquinolin-6-yl)-2-(2-chlorophenyl)acetamide] | 200 to 5000 nM |
| CC(C)COc1nccc2c(S(N)(=O)=O)cc(NC(=O)Cc3ccccc3Cl)cc12 [Compound 14, 2-(2-chlorophenyl)-N-(1-isobutoxy-5-sulfamoylisoquinolin-7-yl)acetamide] | 10 to 50 nM |
| NS(=O)(=O)c1cc(NC(=O)Cc2ccccc2Cl)cc2c1CCN(C(=O)C1CCC1)C2 [Compound 107] | 10 to 50 nM |
| CC(C)Oc1nccc2c(S(N)(=O)=O)cc(NC(=O)Cc3ccccc3Cl)cc12 [Compound 9, 2-(2-chlorophenyl)-N-(1-isopropoxy-5-sulfamoylisoquinolin-7-yl)acetamide] | 10 to 50 nM |
| COc1nccc2c(S(N)(=O)=O)cc(NC(=O)Cc3c(Cl)ccc(F)c3F)cc12 [Compound 54, 2-(6-chloro-2,3-difluorophenyl)-N-(1-methoxy-5-sulfamoylisoquinolin-7-yl)acetamide] | 200 to 5000 nM |
| NS(=O)(=O)c1cc(NC(=O)Cc2ccccc2Cl)cc2c(Oc3ccc(F)cc3)nccc12 [Compound 31, 2-(2-chlorophenyl)-N-(1-(4-fluorophenoxy)-5-sulfamoylisoquinolin-7-yl)acetamide] | 10 to 50 nM |
| NS(=O)(=O)c1cc(NC(=O)Cc2ccccc2Cl)cc2c1CCN(c1ccc(Cl)cn1)C2 [Compound 116, 2-(2-chlorophenyl)-N-(2-(5-chloropyridin-2-yl)-5-sulfamoyl-1,2,3,4-tetrahydroisoquinolin-7-yl)acetamide] | 50 to 200 nM |
| NS(=O)(=O)c1cc(NC(=O)Cc2ccccc2Cl)cc2cnc(F)cc12 [Compound 7, 2-(2-chlorophenyl)-N-(3-fluoro-5-sulfamoylisoquinolin-7-yl)acetamide] | 50 to 200 nM |
| NS(=O)(=O)c1cc(NC(=O)Cc2ccccc2Cl)cc2c(OC3CNC3)nccc12 [Compound 12, N-(1-(azetidin-3-oxy)-5-sulfamoylisoquinolin-7-yl)-2-(2-chlorophenyl)acetamide] | 10 to 50 nM |
| NS(=O)(=O)c1cc(NC(=O)Cc2ccccc2Cl)cc2c1CCN(c1ccccc1)C2 [Compound 104, 2-(2-chlorophenyl)-N-(2-phenyl-5-sulfamoyl-1,2,3,4-tetrahydroisoquinolin-7-yl)acetamide] | 50 to 200 nM |
| CN1CCN(c2cc3c(S(N)(=O)=O)cc(NC(=O)Cc4ccccc4Cl)cc3cn2)CC1=O [Compound 80, 2-(2-chlorophenyl)-N-(3-(4-methyl-3-carbonylpiperazin-1-yl)-5-sulfamoylisoquinolin-7-yl)acetamide] | 50 to 200 nM |
| NS(=O)(=O)c1cc(NC(=O)Cc2ccccc2Cl)cc2nc(N3CCCCC3)ccc12 [Compound 67, 2-(2-chlorophenyl)-N-(2-(piperidin-1-yl)-5-sulfamoylquinolin-7-yl)acetamide] | 200 to 5000 nM |
| CC(C)Nc1ccc2c(S(N)(=O)=O)cc(NC(=O)Cc3ccccc3Cl)cc2n1 [Compound 73, 2-(2-chlorophenyl)-N-(2-(isopropylamino)-5-sulfamoylquinolin-7-yl)acetamide] | 200 to 5000 nM |
